# Patent US20050118601A1, “Enhancer sequence of the 5-aminolevulinic acid synthase gene” (priority 2002, published 2005)
# Where two headings read alike, the source gives them in different places.
# Key:
# [1] = test system: chicken ALAS1 drug responsive enhancer sequence (ADRES) elements; test: Luciferase reporter gene assay of chicken ALAS1 5'-flanking fragments / ADRES elements in transfected LMH cells; assay type: cell-based; details: for ADRES activation in reporter assays: PIA 250 μM, glutethimide 500 μM, metyrapone 400 μM, dexamethasone 50 μM, RU-486 10 μM, rifampicin 100 μM, TCPOBOP 10 μM, compared with PB 600 μM
# Protocol: The constructs were transfected together with a transfection-control construct expressing β-galactosidase into LMH cells. Cells were then treated with 600 μM PB for 16 h and luciferase assays were performed on the cell extracts. Relative luciferase levels are standardized against cells transfected with vector containing no insert and expressed as fold induction. Experiments were repeated at least three times and data from a representative experiment tested in triplicate are shown here. Error bars represent standard deviations;
# Three major subclones were generated from the region upstream of the transcriptional start site, including a 3282 bp SmaI fragment and 5056 bp and 7973 bp EcoRI segments (FIG. 1A). The SmaI clone extends from −167 bp to −3449 bp, whereas the EcoRI subfragments span the regions from −2347 bp to −7402 bp and −7403 bp to −15376 bp, respectively. These subfragments were cloned into the pLucMCS modified luciferase vector containing an SV40 promoter as described in Materials and Methods. Drug inducibility was measured in transiently transfected LMH cells treated with 600 μM PB and compared with control values. […]
# The modified enhancers were examined for response to 600 μM PB in luciferase reporter gene assays and the results are presented in FIG. 3.
# Leghorn Male Hepatoma (LMH) cells were obtained from the American Type Culture Collection and cultivated in 10 cm dishes in Williams E medium supplemented with 10% FCS, 1% glutamine (2 mM) and 1% penicillin/streptomycin (50 IU/ml). Dishes coated with 0.1% gelatin were used for routine culture of LMH cells in order to facilitate proper seating of the cells onto the plastic plate surface.
# ALAS1 mRNA = ALAS1 mRNA quantification (Taqman real-time PCR) in LMH cells; assay type: cell-based, chicken
# Protocol: We next wanted to compare ADRES-mediated ALAS1 induction levels from reporter gene assays with stimulation of transcription in a physiological system. […] In addition, the common CYP3A inducers dexamethasone (50 μM), metyrapone (400 μM), and 10 μM mifepristone (RU-486) were employed for comparison. We were also interested in the effects of […] 5-pregnen-3β-ol-20-one-16α-carbonitrile (PCN) and rifampicin (100 μM) due to their species-specific effects on PXR activation and CYP3A induction. Messenger RNA was reverse transcribed and levels of ALAS1 cDNA were quantified using the Taqman real-time PCR quantification system as described in Materials and Methods. […] This value was chosen to represent 100% induction, against which all other values are compared.
# LMH cells were plated onto 12-well plates, expanded to 70-80% surface density and incubated in serum-free media for 24 h. Cells were then exposed to either drug or vehicle and RNA was isolated with Trizol reagent (Gibco BRL) according to the manufacturer protocol. One μg of total RNA was reverse transcribed with the Moloney murine leukemia virus reverse transcriptase kit (Roche Molecular Biochemicals). PCR was performed using the Taqman PCR core reagent kit (PE Applied Biosystems) and transcript levels quantitated with an ABI Prism 7700 sequence detection system (PE Applied Biosystems). Relative transcript levels were determined using the relative quantitation method measuring the ΔΔCt. The following primers and probes were used in these reactions. […] Transcript levels were measured in separate tubes and GAPDH values were used for normalization of ALAS1 values.
# [2] = test system: human ALAS1 gene fragments (hA795, hA174, hA8, hA240); test: Luciferase reporter gene assay of human ALAS1 fragments in LMH cells; assay type: cell-based; details: 24 h, 400 μM PB or 250 μM PIA
# Protocol: Fragments were cloned into the pGL3 luciferase reporter vector (Promega Corp) and tested for inducibility by the prototypical HALAS1 inducers phenobarbital (PB) and propylisopropylacetamid (PIA). Four hours after transfection of LMH cells with the constructs, cells were exposed to the drugs for 24 hours, after which luciferase activity was assayed. Results were normalized for transfection efficiency by assaying for activity of co-transfected β-galactosidase. Data shown is one representative experiment (FIG. 11).
# We investigated in more detail the contribution of various response element half-sites to drug-induction mediated by this element. Within the hA174 element, an arrangement of three nuclear receptor response element half-sites was found, which lead: to the prediction of a DR-4 type, as well as a DR-5 type response element (of. FIG. 18A). By site-directed mutagenesis, we examined the involvement of each of these half-sites to drug induction. In the context of the 2xhA174 reporter construct, each single half-site was mutated in both copies of the hA174 element. The wild-type and mutant constructs were subsequently tested for reporter gene activation in LMH cells as described above. Cells were induced with 400 μM phenobarbital (PB) or 250 μM propylisopropylacetamid (PIA). As a control, vehicle alone (0.1% DMSO) was added to the cells. After 24 hours, luciferase activity was assayed and normalized against co-transfected β-galactosidase activity in order to compensate for transfection efficiency. […] From this, we conclude that the DR-4 element, consisting of the HS1 and HS2 half-sites, is essential for drug induction. The change in induction observed by mutagenesis of the HS3 half-site may indicate a modulatory role for the half-site alone or as a DR-5 in combination with HS2 in drug induction. Data shown are the mean+1SD of three independent experiments.
# In order to define a core sequence retaining inducibility, the hA8 fragment (Seq. Id. No. 10), which carries PCR-introduced KpnI and XhoI restriction sites at its ends, was digested with SacI and NsiI. The resulting four fragments, a 100 bp KpnI/SacI fragment, a 374 bp SacI/NsiI fragment, a 240 bp NsiI/NsiI fragment, and a 231 bp NsiI/XhoI fragment, were cloned into a reporter gene vector and subsequently tested for drug induction in LMH cells. Of these fragments, only the 240 bp fragment (called hA240) (Seq. Id. No. 39) was able to convey transcriptional activation in response to drugs. Within the core hA240 fragment, we then mutated both half-sites of a predicted DR-4 element (cf. FIG. 18B) and observed the effect of this mutation on drug induction (240mutDR4). Alteration of the DR4 element half-sites abolished drug induction in LMH cell reporter gene assays. […]
# mCAR = target: T1, mCAR (Mus musculus, UniProt O35627); test: Transactivation assays of human ALAS1 fragments with mCAR in CV-1 and HepG2 cells; assay type: cell-based
# T1 construct: expressed in transfected cells; host or cells: monkey kidney CV-1 cells and human hepatoma HepG2 cells
# T1 sequence (O35627 1-358): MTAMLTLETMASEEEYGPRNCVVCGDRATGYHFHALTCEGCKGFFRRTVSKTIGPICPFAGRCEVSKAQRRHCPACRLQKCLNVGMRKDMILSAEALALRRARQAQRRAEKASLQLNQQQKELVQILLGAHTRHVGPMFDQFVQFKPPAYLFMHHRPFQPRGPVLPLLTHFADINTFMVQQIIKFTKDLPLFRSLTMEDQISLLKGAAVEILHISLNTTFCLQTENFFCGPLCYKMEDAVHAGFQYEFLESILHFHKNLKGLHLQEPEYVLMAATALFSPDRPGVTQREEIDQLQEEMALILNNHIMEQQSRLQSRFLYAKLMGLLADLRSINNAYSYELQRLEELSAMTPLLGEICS
# Protocol: In transactivation assays in a heterologous cell line (monkey kidney CV-1 cells) and human hepatoma HepG2 cells, we assessed which nuclear receptor conveys the observed activation. The two candidate receptors pregnane X receptor (PXR) and constitutive androstane receptor (CAR) were tested on these fragments.
# mouse CAR = target: T2, mouse CAR (Mus musculus, UniProt O35627); test: Transactivation of 369 bp ADRES by mouse CAR in CV-1 cells (CAT reporter); assay type: cell-based; details: TCPOBOP, 16 h
# T2 construct: expressed in transfected cells; host or cells: CV-1 cells, pSG5 expression vector
# T2 sequence (O35627 1-358): T1 sequence (O35627 1-358)
# Protocol: To test the effects of the mutations on transcriptional activation, transactivations in CV-1 cells with mouse PXR and mouse CAR and their respective inducers PCN and TCPOBOP, were performed (FIG. 14). The inducible DNA constructs were subcloned into the CAT5 reporter vector and tested for their ability to be transactivated by nuclear receptor transcription factors in CV-1 cells. Mouse PXR (A) and mouse CAR (B) coding regions cloned into the pSG5 expression vector were cotransfected along with a vector expressing pSV β-galactosidase as control. Cells were then treated for 16 h with either drugs (A, PCN; B, TCPOBOP) or vehicle control and cell extracts were analyzed for CAT expression normalized against β-galactosidase levels. Experiments were repeated at least three times and error bars represent standard deviations.
# mouse 369 bp DRES = test: Luciferase reporter gene assay of mouse ALAS1 fragments / 369 bp DRES in LMH cells; assay type: cell-based; details: metyrapone 500 μM, glutethimide 500 μM, PIA 250 μM
# Protocol: A 175 bp fragment (441 to 615) (Seq. Id. No. 3) was isolated by digesting the 2.6 kb fragment with SacI/XbaI. All fragments were subcloned in the pGL3LUCpro+MCS vector and the resulting constructs tested for inducibility in LMH reporter gene assay (FIG. 6). […] The 369 bp fragment was termed Drug responsive enhancer sequence DRES.
# To compare the 369 bp DRES to other inducible fragments, a series of different drugs was used as inducers: clothrimazole (Clo, 10 μM), dexamethasone (Dex, 50 μM), glutethimide (GE, 500 μM), metyrapone (Met, 500 μM), phenobarbital (PB, 500 μM), PCN (10 μM), propylisopropylacetamide (PIA, 250 μM), rifampicin (Rif, 10 μM), RU486 (10 μM), TCPOBOP (10 μM).
# Data shown is from two independent experiments.
smiles,measurement,setting,value
"CCC1(c2ccccc2)C(=O)NC(=O)NC1=O.[Na] [PB, 5-ethyl-5-phenyl-barbituric acid sodium salt]",PB response of 167 bp ADRES diminished by DR4-3 mutation,"[1]; 600 μM PB, LMH cells",75%
same,"activation of 167 bp ADRES, DR4-2 mutant","[1]; 600 μM PB, LMH cells",5.4 fold
same,"activation of 176 bp ADRES, DR4-1 mutant","[1]; 600 μM PB, LMH cells",16 fold
same,"activation of 176 bp ADRES, DR5 mutant","[1]; 600 μM PB, LMH cells",6.4 fold
same,activation of wild type 167 bp ADRES,"[1]; 600 μM PB, LMH cells",60 fold
same,activation of wild type 176 bp ADRES,"[1]; 600 μM PB, LMH cells",44 fold
same,"induction of 167 bp ADRES, DR4-3 mutant","[1]; 600 μM PB, LMH cells",15 fold
same,limitation of 176 bp ADRES activation by DR4-1 mutation,"[1]; 600 μM PB, LMH cells",over 60%
same,reduction of 176 bp ADRES activity by DR5 mutation,"[1]; 600 μM PB, LMH cells",over 85%
same,reduction of PB response of 167 bp ADRES by DR4-2 alteration,"[1]; 600 μM PB, LMH cells",over 90%
same,"induction over control values, 176 bp and 167 bp elements",[1]; LMH cells exposed to PB,25-60 fold
same,"transcriptional activation in response to drug treatment, 5056 bp and 3282 bp subfragments","[1]; LMH cells, 600 μM PB",virtually no transcriptional activation
same,"increase in transcriptional activation relative to control values, 7973 bp subfragment","[1]; LMH cells, 600 μM PB, 16 h",28 fold
same,activation of the 167 bp element compared to the 176 bp element,"[1]; PB 600 μM, LMH cells",twice the activation
same,ALAS1 RNA levels relative to basal transcript levels,ALAS1 mRNA,16 fold
same,effect on ALAS1 mRNA levels,ALAS1 mRNA,strong inducer
same,"inducibility of 2xhA174, HS1 or HS2 half-site mutated",[2],abolishment of inducibility
same,"induction of 2xhA174, HS3 half-site altered",[2],merely reduces induction levels
C[C@]12CC[C@@H](O)C[C@@H]1CC[C@@H]1[C@@H]2CC[C@]2(C)C=CC[C@@H]12 [3α-androstenol],mCAR induced activity remaining after repression,"mCAR; human ALAS1 fragments hA795, hA8, hA174, inverse agonist",approximately 50%
"Clc1cnc(Oc2ccc(Oc3ncc(Cl)cc3Cl)cc2)c(Cl)c1 [TCPOBOP, 1,4-Bis[2-(3,5-dichloropyridyloxy)]benzene]",ADRES activation in reporter assays,"[1]; LMH cells, 16 h",no response
same,effect on ALAS1 mRNA levels,"ALAS1 mRNA; LMH cells, 16 h, PB 600 μM, dexamethasone 50 μM, RU-486 10 μM, rifampicin 100 μM, TCPOBOP 10 μM",no response
same,"induction capacity, DR4-1,2/hs1,2 quadruple mutant",mouse CAR,completely eliminated
same,"induction exceeding basal levels, DR4-2/hs1 construct",mouse CAR,1.4 fold
same,"induction, DR4-2/hs2 construct or DR4-2 double mutant",mouse CAR,no induction was observed
same,"response, DR4-1 single and double mutants",mouse CAR,did not exhibit any response
same,reversal of 3α-androstenol repression of mCAR induced activity,"mCAR; human ALAS1 fragments, direct agonist",reversible
"CCCC(C(N)=O)C(C)C (stereo not drawn) [PIA, Propylisopropylacetamide]",ADRES activation in reporter assays,"[1]; LMH cells, 16 h",in excess of levels obtained from PB treatment
same,"induction of the 369 bp DRES, ranking of drugs",mouse 369 bp DRES,strongest inducer
same,"inducibility of 2xhA174, HS1 or HS2 half-site mutated",[2],abolishment of inducibility
same,"induction of 2xhA174, HS3 half-site altered",[2],merely reduces induction levels
